{"source": "patent US7901724B2", "about": "“Fermented tea obtained by tea-rolling processing of tea material leaves and loquat leaves, and composition having extract contained in fermented tea as active component” (Nagasaki Prefectural Government, priority 2004, dated 2011)", "test_system": "normal rat", "test": "Maltose load in normal rat, single administration, blood glucose levels", "type": "in vivo", "conditions": "maltose 2 g/kg load", "protocol": "Maltose was administered to a normal rat at a dosage of 2 g per kg of the body weight. Subsequently, an extract obtained by extracting the fermented tea obtained by means of tea-rolling processing with hot water was administered to the rat at a dosage of 20 mg per kg of the body weight, or a product was administered to the rat at a dosage of 20 mg per kg of the body weight, in which a plant in Sri Lanka, one of the materials having high activities with the highest level among the materials reported heretofore (J. Agri. Food. Chem. 2004) was extracted with methanol, then concentrated, and then freeze-dried, followed by dissolving the freeze-dried product in water. 30 minutes, 60 minutes, and 120 minutes after the administration, the blood glucose levels were measured.\nAs an indication of 50% reduction of the elevation of blood glucose levels, EC50 is employed.\nMaltose was administrated to a normal rat at a dosage of 2 g per kg of the body weight. Subsequently, an extract obtained by extracting the fermented tea obtained by means of tea-rolling processing with hot water was administered at a dosage of 10 mg per kg of the body weight or 20 mg per kg of the body weight. A decreasing rate of the total blood glucose level area up to 120 minutes after carrying out carbohydrate load (AUCO-120) is shown in Table 6."}
{"smiles": "C[C@H]1O[C@H](O[C@H]2[C@H](O)[C@@H](O)[C@@H](O[C@H]3[C@H](O)[C@@H](O)C(O)O[C@@H]3CO)O[C@@H]2CO)[C@H](O)[C@@H](O)[C@@H]1N[C@H]1C=C(CO)[C@@H](O)[C@H](O)[C@H]1O", "note": "(stereo partly shown) [Acarbose, acarbose]", "values": [{"measurement": "EC50 (50% reduction of the elevation of blood glucose levels)", "result": 3.1, "unit": "mg/kg"}]}
